Assay results: patent publication US10351525B2, “Beta lactamase inhibitors” (Oxford University Innovation Limited, priority 2014, dated 2019)

Experiments:
VIM-2 = biological target: T1, VIM-2 (Escherichia coli, UniProt Q5U7L7); details: Spicer et al, NIH Probe Reports 2010, read-out: IC50 against VIM-2, reported value; cited from earlier work
T1 construct: made in house; host or cells: Escherichia coli

K. pneumoniae 128 = assay: MIC of MEM with and without ML302F (1:8), VIM-4 producer; assay type: cell-based; details: Klebsiella pneumoniae; K. pneumoniae 128 (VIM-4); MEM alone or with ML302F (1:8)
Description: (§1) In a further study, antimicrobial activities of MEM and ML302F alone and in combination were assessed in-vitro against 31 VIM-producing clinical isolates.

E. cloacae 102 = assay: as above; assay type: cell-based; details: Enterobacter cloacae; E. cloacae 102 (VIM-4); MEM alone or with ML302F (1:8)
Description: as §1

K. pneumoniae 196 = assay: as above; assay type: cell-based; details: Klebsiella pneumoniae; K. pneumoniae 196 (VIM-4); MEM alone or with ML302F (1:8)
Description: as §1

K. pneumoniae 120 = assay: as above; assay type: cell-based; details: Klebsiella pneumoniae; K. pneumoniae 120 (VIM-4); MEM alone or with ML302F (1:8)
Description: as §1

K. pneumoniae 101 = assay: as above; assay type: cell-based; details: Klebsiella pneumoniae; K. pneumoniae 101 (VIM-4); MEM alone or with ML302F (1:8)
Description: as §1

P. stuartii 70 = assay: MIC of MEM with and without ML302F (1:8), VIM-1 producer; assay type: cell-based; details: Providencia stuartii; P. stuartii 70 (VIM-1); MEM alone or with ML302F (1:8)
Description: as §1

P.. stuartii 67 = assay: as above; assay type: cell-based; details: Providencia stuartii; P. stuartii 67 (VIM-1); MEM alone or with ML302F (1:8)
Description: as §1

K. pneumoniae GR54 = assay: as above; assay type: cell-based; details: Klebsiella pneumoniae
Description: as §1

K. pneumoniae 177 = assay: as above; assay type: cell-based; details: Klebsiella pneumoniae; K. pneumoniae 177 (VIM-1); MEM alone or with ML302F (1:8)
Description: as §1

P. aeruginosa GR58 = assay: MIC of MEM with and without ML302F (1:8), VIM-2 producer; assay type: cell-based; details: Pseudomonas aeruginosa; P. aeruginosa GR58 (VIM-2); MEM alone or with ML302F (1:8)
Description: as §1

P. aeruginosa 11 (14) = assay: as above; assay type: cell-based; details: Pseudomonas aeruginosa
Description: as §1

P. aeruginosa 3 (13) = assay: as above; assay type: cell-based; details: Pseudomonas aeruginosa; P. aeruginosa 3 (13) (VIM-2); MEM alone or with ML302F (1:8)
Description: as §1

P. aeruginosa GR57 = assay: as above; assay type: cell-based; details: Pseudomonas aeruginosa; P. aeruginosa GR57 (VIM-2); MEM alone or with ML302F (1:8)
Description: as §1

P. aeruginosa 16 (14) = assay: as above; assay type: cell-based; details: Pseudomonas aeruginosa; P. aeruginosa 16 (14) (VIM-2); MEM alone or with ML302F (1:8)
Description: as §1

P. aeruginosa 6 (14) = assay: as above; assay type: cell-based; details: Pseudomonas aeruginosa
Description: as §1

P. aeruginosa 13 (14) = assay: as above; assay type: cell-based; details: Pseudomonas aeruginosa; P. aeruginosa 13 (14) (VIM-2); MEM alone or with ML302F (1:8)
Description: as §1

P. aeruginosa 12 (14) = assay: as above; assay type: cell-based; details: Pseudomonas aeruginosa
Description: as §1

P. aeruginosa 47 = assay: as above; assay type: cell-based; details: Pseudomonas aeruginosa; P. aeruginosa 47 (VIM-2); MEM alone or with ML302F (1:8)
Description: as §1

P. aeruginosa 8 (13) = assay: as above; assay type: cell-based; details: Pseudomonas aeruginosa
Description: as §1

P. aeruginosa 9 (13) = assay: as above; assay type: cell-based; details: Pseudomonas aeruginosa
Description: as §1

P. aeruginosa 50 = assay: as above; assay type: cell-based; details: Pseudomonas aeruginosa; P. aeruginosa 50 (VIM-2); MEM alone or with ML302F (1:8)
Description: as §1

P. aeruginosa 11 (13) = assay: as above; assay type: cell-based; details: Pseudomonas aeruginosa; P. aeruginosa 11 (13) (VIM-2); MEM alone or with ML302F (1:8)
Description: as §1

P. aeruginosa GR64 = assay: as above; assay type: cell-based; details: Pseudomonas aeruginosa; P. aeruginosa GR64 (VIM-2); MEM alone or with ML302F (1:8)
Description: as §1

P. aeruginosa 27 (14) = assay: as above; assay type: cell-based; details: Pseudomonas aeruginosa; P. aeruginosa 27 (14) (VIM-2); MEM alone or with ML302F (1:8)
Description: as §1

P. aeruginosa 30 = assay: as above; assay type: cell-based; details: Pseudomonas aeruginosa; P. aeruginosa 30 (VIM-2); MEM alone or with ML302F (1:8)
Description: as §1

P. aeruginosa GR62 = assay: as above; assay type: cell-based; details: Pseudomonas aeruginosa; P. aeruginosa GR62 (VIM-2); MEM alone or with ML302F (1:8)
Description: as §1

P. aeruginosa 15 (14) = assay: as above; assay type: cell-based; details: Pseudomonas aeruginosa; P. aeruginosa 15 (14) (VIM-2); MEM alone or with ML302F (1:8)
Description: as §1

P. aeruginosa 14 (14) = assay: as above; assay type: cell-based; details: Pseudomonas aeruginosa; P. aeruginosa 14 (14) (VIM-2); MEM alone or with ML302F (1:8)
Description: as §1

CN1CCN(NC(=O)CN2C(=O)C(=Cc3c(Cl)ccc(Cl)c3Cl)SC2=S)CC1 (mixture of isomers) [ML302, N-(4-Methylpiperazin-1-yl)-2-(4-oxo-2-thioxo-5-(2,3,6-trichlorobenzylidene)thiazolidin-3-yl)acetamide]
IC50 (VIM-2): 548 nM

C[C@@H](O)[C@H]1C(=O)N2C(C(=O)O)=C(S[C@@H]3CN[C@H](C(=O)N(C)C)C3)[C@H](C)[C@H]12 [Meropenem, meropenem]
MIC (K. pneumoniae 128): 4 µg/mL
MIC (E. cloacae 102): 32 µg/mL
MIC (K. pneumoniae 196): 16 µg/mL
MIC (K. pneumoniae 120): 16 µg/mL
MIC (K. pneumoniae 101): 32 µg/mL
MIC (P. stuartii 70): 8 µg/mL
MIC (P.. stuartii 67): 8 µg/mL
MIC (K. pneumoniae GR54): 128 µg/mL
MIC (K. pneumoniae 177): 1 µg/mL
MIC (P. aeruginosa GR58): 32 µg/mL
MIC (P. aeruginosa 11 (14)): 128 µg/mL
MIC (P. aeruginosa 3 (13)): 64 µg/mL
MIC (P. aeruginosa GR57): 32 µg/mL
MIC (P. aeruginosa 16 (14)): 64 µg/mL
MIC (P. aeruginosa 6 (14)): 128 µg/mL
MIC (P. aeruginosa 13 (14)): 32 µg/mL
MIC (P. aeruginosa 12 (14)): 128 µg/mL
MIC (P. aeruginosa 47): 32 µg/mL
MIC (P. aeruginosa 8 (13)): 128 µg/mL
MIC (P. aeruginosa 9 (13)): 128 µg/mL
MIC (P. aeruginosa 50): 32 µg/mL
MIC (P. aeruginosa 11 (13)): 32 µg/mL
MIC (P. aeruginosa GR64): 32 µg/mL
MIC (P. aeruginosa 27 (14)): 64 µg/mL
MIC (P. aeruginosa 30): 64 µg/mL
MIC (P. aeruginosa GR62): 32 µg/mL
MIC (P. aeruginosa 15 (14)): 64 µg/mL
MIC (P. aeruginosa 14 (14)): 64 µg/mL
